Results taken from US11130756B2, “[1,2,4]Triazolo[4,3-A]pyridinyl substituted indole compounds” (BRISTOL-MYERS SQUIBB COMPANY, priority 2017, dated 2021).

Tests used:
Type in all cases: cell-based
human TLR8 = target: T1, human TLR8 (Homo sapiens, UniProt Q9NR97); assay: TLR8 inhibition reporter assay (HEK-Blue, SEAP); settings: HEK-Blue cells overexpressing human TLR8, R848 15.9 μM, 22 hour incubation
T1 construct: host or cells: HEK-Blue cells
T1 sequence (Q9NR97 27-1041): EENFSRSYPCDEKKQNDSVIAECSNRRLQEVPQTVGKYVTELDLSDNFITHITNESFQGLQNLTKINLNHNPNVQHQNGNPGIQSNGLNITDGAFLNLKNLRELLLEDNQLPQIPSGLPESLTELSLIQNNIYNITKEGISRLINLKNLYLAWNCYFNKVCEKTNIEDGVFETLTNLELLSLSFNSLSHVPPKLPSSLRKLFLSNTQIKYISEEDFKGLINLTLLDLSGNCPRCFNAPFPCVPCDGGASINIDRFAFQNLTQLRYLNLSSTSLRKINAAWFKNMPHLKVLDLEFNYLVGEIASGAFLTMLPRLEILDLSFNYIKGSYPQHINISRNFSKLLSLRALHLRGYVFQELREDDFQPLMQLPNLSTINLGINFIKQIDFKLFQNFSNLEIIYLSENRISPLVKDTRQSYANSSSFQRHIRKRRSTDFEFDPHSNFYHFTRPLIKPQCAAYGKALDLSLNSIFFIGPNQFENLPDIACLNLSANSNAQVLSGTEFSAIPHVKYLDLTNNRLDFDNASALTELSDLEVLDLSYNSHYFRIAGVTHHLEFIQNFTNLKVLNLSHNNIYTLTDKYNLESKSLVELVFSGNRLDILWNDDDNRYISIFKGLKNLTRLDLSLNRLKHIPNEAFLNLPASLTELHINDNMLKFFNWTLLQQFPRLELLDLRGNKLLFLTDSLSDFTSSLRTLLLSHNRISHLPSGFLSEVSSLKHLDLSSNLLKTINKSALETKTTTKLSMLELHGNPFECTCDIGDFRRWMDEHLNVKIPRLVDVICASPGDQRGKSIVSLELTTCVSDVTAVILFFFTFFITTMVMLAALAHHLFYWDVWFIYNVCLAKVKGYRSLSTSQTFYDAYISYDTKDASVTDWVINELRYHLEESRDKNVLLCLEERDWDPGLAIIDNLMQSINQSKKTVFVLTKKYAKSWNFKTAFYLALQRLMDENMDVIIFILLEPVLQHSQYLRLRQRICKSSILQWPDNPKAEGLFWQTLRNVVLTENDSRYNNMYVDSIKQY
How it was run: (§1)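 Dose–response from 0.05 nM to 50 μM was run in HEK-Blue human TLR7, TLR8 and TLR9 reporter cells. After 30 min at room temperature with compound, ligand was added (TLR7 gardiquimod 7.5 μM; TLR8 R848 15.9 μM; TLR9 ODN2006 5 nM) and SEAP measured next day, at 22 h.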

human TLR9 = target: T2, human TLR9 (Homo sapiens, UniProt Q9NR96); assay: TLR9 inhibition reporter assay (HEK-Blue, SEAP); settings: HEK-Blue cells overexpressing human TLR9, ODN2006 5 nM, 22 hour incubation
T2 construct: host or cells: HEK-Blue cells
T2 sequence (Q9NR96 26-1032): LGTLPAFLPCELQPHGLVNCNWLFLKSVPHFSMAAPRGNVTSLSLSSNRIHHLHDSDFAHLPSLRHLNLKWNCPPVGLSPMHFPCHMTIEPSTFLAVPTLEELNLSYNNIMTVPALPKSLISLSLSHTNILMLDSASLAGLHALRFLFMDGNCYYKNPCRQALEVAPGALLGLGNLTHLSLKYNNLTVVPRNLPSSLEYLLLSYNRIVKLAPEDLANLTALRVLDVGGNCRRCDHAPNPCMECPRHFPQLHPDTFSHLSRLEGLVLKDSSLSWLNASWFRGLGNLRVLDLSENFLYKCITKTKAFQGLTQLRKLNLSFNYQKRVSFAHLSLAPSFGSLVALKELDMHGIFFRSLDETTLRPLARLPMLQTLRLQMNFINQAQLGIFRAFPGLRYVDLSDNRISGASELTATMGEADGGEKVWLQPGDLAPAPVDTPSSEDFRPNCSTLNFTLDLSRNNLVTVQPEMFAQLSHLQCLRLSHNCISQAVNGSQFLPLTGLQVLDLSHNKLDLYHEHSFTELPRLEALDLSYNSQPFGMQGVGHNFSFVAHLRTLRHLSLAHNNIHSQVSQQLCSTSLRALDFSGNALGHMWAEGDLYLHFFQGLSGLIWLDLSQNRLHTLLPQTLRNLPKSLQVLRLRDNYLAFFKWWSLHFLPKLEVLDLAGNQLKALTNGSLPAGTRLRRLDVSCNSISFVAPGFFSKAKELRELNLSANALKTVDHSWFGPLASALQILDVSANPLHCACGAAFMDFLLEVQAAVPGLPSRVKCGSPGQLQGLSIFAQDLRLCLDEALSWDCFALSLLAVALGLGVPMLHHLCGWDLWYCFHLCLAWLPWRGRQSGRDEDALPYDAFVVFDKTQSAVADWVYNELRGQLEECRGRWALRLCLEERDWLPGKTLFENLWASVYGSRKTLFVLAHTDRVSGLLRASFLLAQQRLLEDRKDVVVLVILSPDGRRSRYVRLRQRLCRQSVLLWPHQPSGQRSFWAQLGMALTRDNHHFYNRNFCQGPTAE
How it was run: as §1

human TLR7 = target: T3, human TLR7 (Homo sapiens, UniProt Q9NYK1); assay: TLR7 inhibition reporter assay (HEK-Blue, SEAP); settings: HEK-Blue cells overexpressing human TLR7, gardiquimod 7.5 μM, 22 hour incubation
T3 construct: host or cells: HEK-Blue cells
T3 sequence (Q9NYK1 27-1049): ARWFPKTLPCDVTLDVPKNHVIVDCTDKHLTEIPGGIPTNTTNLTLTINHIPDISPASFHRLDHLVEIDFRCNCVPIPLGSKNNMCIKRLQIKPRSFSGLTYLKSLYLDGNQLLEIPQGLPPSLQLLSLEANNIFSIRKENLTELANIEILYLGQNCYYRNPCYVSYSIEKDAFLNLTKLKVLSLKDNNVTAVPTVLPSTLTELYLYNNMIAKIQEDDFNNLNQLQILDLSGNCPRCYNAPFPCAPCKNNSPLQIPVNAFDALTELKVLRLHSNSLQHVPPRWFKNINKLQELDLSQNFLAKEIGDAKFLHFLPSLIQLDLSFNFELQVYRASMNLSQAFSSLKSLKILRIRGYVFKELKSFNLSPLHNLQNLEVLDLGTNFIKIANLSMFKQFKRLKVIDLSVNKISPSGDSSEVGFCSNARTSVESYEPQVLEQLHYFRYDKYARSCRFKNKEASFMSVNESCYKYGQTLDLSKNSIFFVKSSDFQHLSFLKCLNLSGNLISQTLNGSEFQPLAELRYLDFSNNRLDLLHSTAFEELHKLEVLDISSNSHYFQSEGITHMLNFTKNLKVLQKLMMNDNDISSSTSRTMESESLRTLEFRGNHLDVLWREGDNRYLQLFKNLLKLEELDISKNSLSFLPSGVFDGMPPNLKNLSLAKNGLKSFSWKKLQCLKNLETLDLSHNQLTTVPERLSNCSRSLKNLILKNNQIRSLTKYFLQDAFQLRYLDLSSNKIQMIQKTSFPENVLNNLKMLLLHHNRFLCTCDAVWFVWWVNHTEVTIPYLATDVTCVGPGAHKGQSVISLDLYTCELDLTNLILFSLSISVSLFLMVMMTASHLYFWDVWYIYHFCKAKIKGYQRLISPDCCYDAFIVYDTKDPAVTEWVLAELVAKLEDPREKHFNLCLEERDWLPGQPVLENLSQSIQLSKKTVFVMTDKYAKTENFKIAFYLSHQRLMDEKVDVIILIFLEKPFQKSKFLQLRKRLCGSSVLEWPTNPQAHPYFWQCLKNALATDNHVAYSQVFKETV
How it was run: as §1

| Structure (SMILES) | IC50 (human TLR8) | IC50 (human TLR9) | IC50 (human TLR7) |
| --- | --- | --- | --- |
| Cc1c(-c2[nH]c3ccc(C4CCN(C5CCOCC5)CC4)cc3c2C(C)C)cn2cnnc2c1Cl [Example 81, 8-chloro-6-(3-isopropyl-5-(1-(tetrahydro-2H-pyran-4-yl)piperidin-4-yl)-1H-indol-2-yl)-7-methyl-[1,2,4]triazolo[4,3-a]pyridine] | 10.8 nM | 2260 nM | 2.5 nM |
| Cc1c(-c2[nH]c3ccc(C4CCN(Cc5cn(C)nn5)CC4)cc3c2C(C)C)cn2cnnc2c1C [Example 83, 6-(3-isopropyl-5-(1-((1-methyl-1H-1,2,3-triazol-4-yl)methyl)piperidin-4-yl)-1H-indol-2-yl)-7,8-dimethyl-[1,2,4]triazolo[4,3-a]pyridine] | 7.2 nM | 875 nM | 3.4 nM |
| Cc1c(-c2[nH]c3ccc(C4CCN(Cc5cn(C)nn5)CC4)cc3c2C(C)C)cn2cnnc2c1Cl [Example 84, 8-chloro-6-(3-isopropyl-5-(1-((1-methyl-1H-1,2,3-triazol-4-yl)methyl)piperidin-4-yl)-1H-indol-2-yl)-7-methyl-[1,2,4]triazolo[4,3-a]pyridine] | 21.6 nM | 1110 nM | 5.7 nM |
| Cc1c(-c2[nH]c3ccc(C4CCN(C5CC(C)OC(C)C5)CC4)cc3c2C(C)C)cn2cnnc2c1C (stereo not drawn) [Example 87, 6-(5-(1-(2,6-dimethyltetrahydro-2H-pyran-4-yl)piperidin-4-yl)-3-isopropyl-1H-indol-2-yl)-7,8-dimethyl-[1,2,4]triazolo[4,3-a]pyridine] | 12.8 nM | 1300 nM | 2.4 nM |
| COc1ncc(CN2CCC(c3ccc4[nH]c(-c5cn6cnnc6c(C)c5C)c(C(C)C)c4c3)CC2)cn1 [Example 89, 6-(3-isopropyl-5-(1-((2-methoxypyrimidin-5-yl)methyl)piperidin-4-yl)-1H-indol-2-yl)-7,8-dimethyl-[1,2,4]triazolo[4,3-a]pyridine] | 3.3 nM | 773 nM | 0.1 nM |
| COc1cc(-c2[nH]c3ccc(C4CCN(CC5(C)COC5)CC4)cc3c2C(C)C)cn2cnnc12 [Example 90, 6-(3-isopropyl-5-(1-((3-methyloxetan-3-yl)methyl)piperidin-4-yl)-1H-indol-2-yl)-8-methoxy-[1,2,4]triazolo[4,3-a]pyridine] | 245 nM | 1500 nM | 17.3 nM |
| Cc1ncc(CN2CCC(c3ccc4[nH]c(-c5cn6cnnc6c(C)c5C)c(C(C)C)c4c3)CC2)cn1 [Example 91, 6-(3-isopropyl-5-(1-((2-methylpyrimidin-5-yl)methyl)piperidin-4-yl)-1H-indol-2-yl)-7,8-dimethyl-[1,2,4]triazolo[4,3-a]pyridine] | 4.6 nM | 1810 nM | 1.5 nM |

Second part, the compound after the results:

| IC50 (human TLR8) | IC50 (human TLR9) | IC50 (human TLR7) | Structure (SMILES) |
| --- | --- | --- | --- |
| 153 nM | ≥ 50000 nM | 4.9 nM | Cc1c(-c2[nH]c3ccc(C4CCN(C5COC5)CC4)cc3c2C(C)C)cn2cnnc2c1Cl [Example 82, 8-chloro-6-(3-isopropyl-5-(1-(oxetan-3-yl)piperidin-4-yl)-1H-indol-2-yl)-7-methyl-[1,2,4] triazolo[4,3-a]pyridine] |
| 6.7 nM | 1990 nM | 2.5 nM | Cc1c(-c2[nH]c3ccc(C4CCN(C5CCOC(C)(C)C5)CC4)cc3c2C(C)C)cn2cnnc2c1C (stereo not drawn) [Example 85, 6-(5-(1-(2,2-dimethyltetrahydro-2H-pyran-4-yl)piperidin-4-yl)-3-isopropyl-1H-indol-2-yl)-7,8-dimethyl-[1,2,4]triazolo[4,3-a]pyridine] |
| 26.8 nM | 6200 nM | 1.2 nM | COc1cc(-c2[nH]c3ccc(C4CCN(C5COC5)CC4)cc3c2C(C)C)cn2cnnc12 [Example 86, 6-(3-isopropyl-5-(1-(oxetan-3-yl)piperidin-4-yl)-1H-indol-2-yl)-8-methoxy-[1,2,4]triazolo[4,3-a]pyridine] |
| 33.4 nM | 344 nM | 1.9 nM | COc1cc(-c2[nH]c3ccc(C4CCN(C5CCOCC5)CC4)cc3c2C(C)C)cn2cnnc12 [Example 88, 6-(3-isopropyl-5-(1-(tetrahydro-2H-pyran-4-yl)piperidin-4-yl)-1H-indol-2-yl)-8-methoxy-[1,2,4]triazolo[4,3-a]pyridine] |
| 15.2 nM | 3270 nM | 5.6 nM | Cc1c(-c2[nH]c3ccc(C4CCN(C5CC(C)OC(C)C5)CC4)cc3c2C(C)C)cn2cnnc2c1C (stereo not drawn) [Example 92, 6-(5-(1-(2,6-dimethyltetrahydro-2H-pyran-4-yl)piperidin-4-yl)-3-isopropyl-1H-indol-2-yl)-7,8-dimethyl-[1,2,4]triazolo[4,3-a] pyridine] |
| 4 nM | 2800 nM | 1.6 nM | Cc1c(-c2[nH]c3ccc(C4CCN(C5CCOC5)CC4)cc3c2C(C)C)cn2cnnc2c1C (stereo not drawn) [Example 93, 6-(3-isopropyl-5-(1-(tetrahydrofuran-3-yl)piperidin-4-yl)-1H-indol-2-yl)-7,8-dimethyl-[1,2,4]triazolo[4,3-a)pyridine] |
